From patent US20160115540A1, “PRODRUGS AND DRUGS” (Biogen MA Inc., priority 2013, published 2016)
Structures can show the parent of a compound that is named as a salt.

System: kidney
Assay: Transcriptional profiling on Affymetrix GeneChips, single dose, naïve mice: kidney
Type: in vivo, C57BL/6 mice
Conditions: 100MMF-vs-Veh
Method: Treated mice were sacrificed at 2, 7, or 12 hours. Tissues (liver, spleen, kidney, jejunum, cortex, hippocampus, striatum and whole blood) were collected and analyzed by transcriptional profiling on mouse Affymetrix GeneChips.
Tissues (liver, spleen, kidney, jejunum, cortex, hippocampus, striatum and whole blood) were collected and analyzed by transcriptional profiling on mouse Affymetrix GeneChips.
Animals were exposed to CO2 and whole blood collected via cardiac puncture. Two 100 μl aliquots of whole blood were collected in 1.5 mL microcentrifuge tubes and snap frozen in liquid nitrogen. Peripheral (liver, spleen, kidney and jejunum) and CNS brain (cerebellum, hippocampus, striatum and cortex) tissues were harvested and snap frozen in liquid nitrogen, with special care taken to collect tissues of similar size and from the same location. All samples were stored at −80° C. until RNA extraction was conducted.
For RNA preparation, frozen tissues were placed in 2 mL RNAse-free 96-well blocks with 1.5 mL QIAzol Lysis Reagent (QIAgen) and a 3.2 mm stainless steel bead (BioSpec Products, Bartlesville, Okla.). Tissues were disrupted for four cycles of 45 seconds in a Mini-Beadbeater (Biospec Products). RNA was extracted in chloroform and the aqueous phase was mixed with an equal volume of 70% ethanol. Extracted RNA was applied to RNeasy 96 plates and purified by the spin method according to the manufacturer's protocol (RNeasy 96 Universal Tissue Protocol, QIAgen, Hilden Germany).
Automated sample amplifications and biotin labelings were carried out using the NuGEN Ovation RNA Amplification system V2 (Cat #3100), Ovation WB reagent (Cat #1300) and Encore Biotin module (Cat #4200) (NuGEN Technologies, Inc, San Carlos, Calif.) according to manufacturer's recommendations using an Arrayplex automated liquid handler (Beckman Coulter, Indianapolis, Ind.). Two micrograms of biotin labeled sscDNA probe were hybridized to Affymetrix GeneChip Affymetrix HT_MG-430_PM plate arrays with modified conditions as described in Allaire et al. Washing and staining of the hybridized arrays were completed as described in the GeneChip Expression analysis technical manual for HT plate arrays using the Genechip® Array Station (Affymetrix, Santa Clara, Calif.) with modifications as described in Allaire et al. The processed GeneChip® plate arrays were scanned using GeneTitan scanner (Affymetrix, Santa Clara, Calif.).
Affymetrix scans were subject to quality control (QC) measures. These tests included a visual inspection of the distribution of raw signal intensities and an assessment of RNA degradation, relative log expression (RLE), and normalized unsealed standard error (NUSE). All sample scans that passed these QC metrics were included in the analysis.
All CEL files were subjected to GC-content-based Robust Multi-array Average (GCRMA) normalization (version 2.20.0) (Irizarry R A, et al. Nucleic Acids Res 2003; 31:e15; Li C, et al. Genome Biol 2001; 2:[…]0032). Expression levels were log (base 2) transformed.
All calculations and analyses were carried out using R (version 2.11.1) and Bioconductor computational tools (Gentleman R. Springer Science+Business Media 2005).

COC(=O)/C=C/C(=O)O [MMF, monomethyl fumarate]
FC 1456319_PM_at (2 h): −2.06 | FC 1456955_PM_at (2 h): 1.60 | FC 1457189_PM_at (2 h): −1.70 | FC 1457586_PM_at (2 h): 1.61 | FC 1458096_PM_at (2 h): −1.87 | FC 1458798_PM_at (2 h): −1.56 | FC 1459091_PM_at (2 h): 2.78 | FC 1459358_PM_at (2 h): 1.56 | FC 1459516_PM_at (2 h): 1.71 | FC 1459774_PM_at (2 h): 1.63 | FC A330023F24Rik 1460033_PM_at (2 h): 1.50 | FC AA986715 1459467_PM_at (2 h): 1.68 | FC Akr1c19 (1455454_PM_at) (2 h): 1.56 | FC Ankrd11 1458452_PM_at (2 h): 1.56 | FC Arl5b 1455166_PM_at (2 h): 1.64 | FC BC038331 1458295_PM_at (2 h): −1.57 | FC Bcl7a 1458503_PM_at (2 h): −1.54 | FC Cggbp1 1455658_PM_at (2 h): 1.51 | FC Gclc (1455959_PM_s_at) (2 h): 1.53 | FC LOC676974 1456909_PM_at (2 h): 1.57 | FC LOC100504796 1457129_PM_at (2 h): −1.55 | FC Lonrf1 1455665_PM_at (2 h): 1.98 | FC Nufip2 1455387_PM_at (2 h): 1.61 | FC Per3 1458176_PM_at (2 h): −1.57 | FC Phf13 1455175_PM_at (2 h): 1.51 | FC Pkp2 1460511_PM_at (2 h): 1.67 | FC Ptprg 1456070_PM_at (2 h): −2.31 | FC Snx29 1456922_PM_at (2 h): −1.74 | FC Tnfsf10 1459913_PM_at (2 h): −1.60 | FC Trib3 1456225_PM_x_at (2 h): 1.56 | FC Zfp295 1457552_PM_at (2 h): 1.74 | FC 1110032F04Rik 1456509_PM_at (7 h): 4.65 | FC 1200003I10Rik /// 1200015M12Rik /// A130040M12Rik /// E430024C06Rik 1427932_PM_s_at (7 h): 1.63 | FC 1300002K09Rik 1453234_PM_at (7 h): 1.98 | FC 1444265_PM_at (7 h): 1.53 | FC 1445668_PM_at (7 h): 1.55 | FC 1447396_PM_at (7 h): −1.73 | FC 1457594_PM_at (7 h): −1.52 | FC 1459091_PM_at (7 h): 3.52 | FC 2610034E01Rik 1460483_PM_at (7 h): 1.56 | FC Abcc4 1443870_PM_at (7 h): 2.09 | FC Abhd15 1453474_PM_at (7 h): 1.64 | FC Acsl4 1451828_PM_a_at (7 h): 1.78 | FC Agps 1434919_PM_at (7 h): −1.68 | FC Agxt2l1 1452975_PM_at (7 h): −1.74 | FC Akr1b8 (1448894_PM_at) (7 h): 1.86 | FC Akr1c19 (1455454_PM_at) (7 h): 1.97 | FC Alas1 1424126_PM_at (7 h): 1.51 | FC Alcam 1426300_PM_at (7 h): 2.66 | FC Alcam 1426301_PM_at (7 h): 2.09 | FC Alcam 1437467_PM_at (7 h): 2.00 | FC Aldh1a7 (1418601_PM_at) (7 h): 2.16 | FC Aox1 (1419435_PM_at) (7 h): 2.50 | FC Asns 1433966_PM_x_at (7 h): 2.13 | FC Asns 1451095_PM_at (7 h): 2.23 | FC Atp13a3 1442145_PM_at (7 h): 1.52 | FC BC037032 1444682_PM_at (7 h): 1.69 | FC Bcat1 1430111_PM_a_at (7 h): −1.59 | FC Bcat1 1450871_PM_a_at (7 h): −1.83 | FC Bcat1 1455699_PM_at (7 h): −2.29 | FC Blvrb (1451386_PM_at) (7 h): 1.83 | FC Btg1 1442018_PM_at (7 h): 1.60 | FC Cbr1 (1460196_PM_at) (7 h): 1.58 | FC Cbr3 (1427912_PM_at) (7 h): 9.54 | FC Cenpe 1435005_PM_at (7 h): −1.60 | FC Cml3 1421609_PM_a_at (7 h): −1.64 | FC Copg2as2 1427123_PM_s_at (7 h): 1.56 | FC Ctps 1416563_PM_at (7 h): 1.57 | FC Cul9 1439866_PM_at (7 h): −1.52 | FC Cyp51 1422533_PM_at (7 h): −1.54 | FC Cyp51 1422534_PM_at (7 h): −1.59 | FC D16Ertd778e 1445089_PM_at (7 h): −1.87 | FC D330040H18Rik 1444432_PM_at (7 h): 1.77 | FC Dbp (1418174_PM_at) (7 h): −1.73 | FC Dbp (1438211_PM_s_at) (7 h): −1.63 | FC Ddit4l 1439332_PM_at (7 h): 1.83 | FC Ddit4l 1444139_PM_at (7 h): 1.85 | FC Ddit4l 1451751_PM_at (7 h): 2.62 | FC Dnase2a (1430135_PM_at) (7 h): 2.20 | FC Dusp5 1437199_PM_at (7 h): 1.74 | FC Eif4ebp1 1434976_PM_x_at (7 h): 1.56 | FC Endou 1449937_PM_at (7 h): 1.52 | FC Esr1 1460591_PM_at (7 h): −1.54 | FC Fam107a 1435918_PM_at (7 h): −1.77 | FC Fbxl2 1428427_PM_at (7 h): −1.68 | FC Fgf1 1441042_PM_at (7 h): −1.71 | FC Fgf1 1450869_PM_at (7 h): −1.76 | FC Fgfbp1 1419086_PM_at (7 h): 1.73 | FC Frem2 1457038_PM_at (7 h): −1.66 | FC G0s2 1448700_PM_at (7 h): 1.50 | FC G6pd2 /// G6pdx 1422327_PM_s_at (7 h): 1.86 | FC G6pdx (1448354_PM_at) (7 h): 1.75 | FC Gclc (1424296_PM_at) (7 h): 1.87 | FC Gclc (1455959_PM_s_at) (7 h): 1.81 | FC Gclm 1418627_PM_at (7 h): 1.64 | FC Gdf15 1418949_PM_at (7 h): 1.98 | FC Gimap3 1449220_PM_at (7 h): −1.51 | FC Gjb1 1448766_PM_at (7 h): 1.50 | FC Gk5 1436210_PM_at (7 h): 1.55 | FC Gm129 1435188_PM_at (7 h): −2.12 | FC Gm3776 /// Gsta1 /// Gsta2 1421041_PM_s_at (7 h): 1.63 | FC Gpr135 1441944_PM_s_at (7 h): 1.66 | FC Gpr135 1459274_PM_at (7 h): 1.53
